What all share (assay): Trophozoite growth inhibition, ATP content (ATPlite) assay
A general note: In ATP-based viability assays light output follows the ATP content of the culture.

The subject of assay [1] is G. lamblia GS trophozoites. Format: cell-based, Giardia lamblia. The note with it: Giardia duodenalis, 72 h, read-out: Mean [IC50 ± SE(IC50)] G. lamblia GS. On the procedure: (§1) Antigiardia assays followed by enzyme inhibition determination facilitated the selection of compounds for permeation and stability studies by in vitro methods, prior to advancing to in vivo studies. Compound potency was evaluated first by measuring G. lamblia trophozoite growth as a function of the compound concentration and calculating the IC50 values. Potency in Entamoeba histolytica trophozoites was also determined because of the early report that fumagillin cured amebiasis ([19]). The intent was to test whether the compounds would be suitable to treat gastrointestinal amebiasis rather than the invasive form of the disease, given that the designed strategy was based on reducing compound permeation across the epithelial cell barrier. […] Trophozoite growth was determined by monitoring the ATP cell content using a high-throughput homogeneous assay developed previously for G. lamblia ([57]). The ATP content serves as a marker of cell integrity since ATP degrades rapidly when cells die and the luminescence signal generated by luciferase requires ATP. The same assay was also adopted in 96-well plates for E. histolytica trophozoite growth measurement, as described in Materials and Methods. A similar E. histolytica trophozoite ATP content assay was described previously ([58]). Fumagillin, TNP-470, and a standard-of-care drug (metronidazole) served as positive controls, and cells without the drug (in the presence of 0.5% dimethyl sulfoxide [DMSO]) served as the negative control.
(§2) Trophozoites of G. lamblia isolates WB and GS were grown anaerobically in borosilicate glass screw-cap culture tubes (Fisher Scientific) at pH 7.0 in Keister’s modified TYI-S-33 medium (ATCC). The medium was supplemented with 10% heat-inactivated bovine serum (Sigma-Aldrich) and 0.05% bovine bile (Sigma-Aldrich). To attain low-oxygen-tension conditions, the tubes were filled to 85% to 90% of their total volume capacity and incubated without shaking at 37°C. Subcultures (2 × 10^5 trophozoites per tube) were made three times a week. Detachment of trophozoites for inoculation was achieved by chilling the cultures on ice for 20 min. Culturing and detachment of metronidazole-resistant G. lamblia assemblage A 713M3 and assemblage B 1279-M1 trophozoites followed the same protocol, except that the growth medium was supplemented with metronidazole, with the concentration gradually being increased to 10 μM.
(§3) The growth inhibition assays were performed in duplicate, once for each compound, for all compounds except fumagillin, which served as a positive control and whose inhibitory ability was measured multiple times as new sets of compounds were tested. All dry compounds except for fumagillin were dissolved in dimethyl sulfoxide (DMSO; Sigma) at a stock concentration of 10 mM and then diluted 1:100 in growth medium to a final compound concentration of 100 μM; fumagillin was diluted to 20 μM. Compound solution aliquots (100 μl) were prepared by 3-fold serial dilutions in growth medium containing 0.5% DMSO and distributed into 96-well assay plates. This was followed by the addition of 10 μl G. lamblia or E. histolytica culture containing 10,000 trophozoites. Fumagillin served as a positive control, and the medium-diluted DMSO alone served as a negative control. The assay plates were placed in a BD GasPak EZ container system (BD Diagnostics) to create an anaerobic growth environment. The sealed containers were incubated at 37°C for 72 h. Following incubation, 70 μl/well of the ATPlite reagent (PerkinElmer) was added to the assay plates for one-step lysis and ATP level detection. The luminescent signals of the assay plates were measured on an EnSpire 2300 plate reader (PerkinElmer). Concentration-response titration points for each compound were fitted to a 4-parameter logistic nonlinear regression model using the KaleidaGraph tool, yielding the IC50 value and standard error (SE).

Assay [2] concerns G. lamblia WB trophozoites. It counts as cell-based. Conditions: Giardia duodenalis, 72 h, read-out: Mean [IC50 ± SE(IC50)] G. lamblia WB. As to the method:
as §1, §2, §3

For assay [3], the system named is E. histolytica HM1:IMSS trophozoites. It counts as cell-based. The note with it: Entamoeba histolytica, 72 h, read-out: Mean [IC50 ± SE(IC50)] E. histolytica HM1: IMSS. On the procedure: as §1
E. histolytica strain HM1:IMSS trophozoites were grown at 37°C in TYI-S-33 medium supplemented with penicillin (100 U/ml) and streptomycin sulfate (100 μg/ml) ([65]). Trophozoites were grown anaerobically in borosilicate tubes or T25 flasks, and subcultures were made 1 to 2 times a week. Trophozoites were detached for inoculation by chilling the cultures on ice for 20 min.
as §3, with “The sealed containers were incubated at 37°C for 72 h.” left out

Setting [4] is: trophozoite growth, ATP content.

Molecules are shown by their SMILES. Read-outs that look alike come from different tables or passages of the source.

By IC50 is commonly meant the concentration at which inhibition is half-maximal. For the compound `COC1C(OC(=O)NC(=O)CN2CCOCC2)CCC2(CO2)C1C1(C)OC1CC=C(C)C` (stereo not drawn) [Compound 3], the IC50 in assay [1] (setting [4]) worked out at 1.5 ± 0.1 nM; in assay [2] (setting [4]), 1.6 ± 0.1 nM; in assay [3] (setting [4]), 4 ± 0.1 nM.

As for `Cc1ncc([N+](=O)[O-])n1CCO` [Metronidazole, reference compound], the 50% inhibitory concentration (IC50) in assay [1] (setting [4]) is 12700 ± 1340 nM; in assay [2] (setting [4]), 5570 ± 877 nM; in assay [3] (setting [4]), 318 ± 16 nM.

On to `CCOC(=O)Cc1ccc(NC(=O)OC2CCC3(CO3)C(C3(C)OC3CC=C(C)C)C2OC)cc1` (stereo not drawn) [Compound 11], for which the results for the IC50 in assay [1] (setting [4]), in assay [2] (setting [4]) and in assay [3] (setting [4]) were 3.1 ± 0.5 nM, 7.4 ± 1.3 nM and 43 ± 3.4 nM, respectively.

Regarding `CO[C@@H]1[C@H](OC(=O)/C=C/C=C/C=C/C=C/C(=O)O)CC[C@]2(CO2)[C@H]1[C@@]1(C)O[C@@H]1CC=C(C)C` [Fumagillin, reference compound], the IC50 worked out at 9 ± 2.2 nM in assay [1], 9.5 ± 2.2 nM in assay [2] and 47.9 ± 4.8 nM in assay [3].

For the compound `COC1C(OC(=O)N2CCC(O)CC2)CCC2(CO2)C1C1(C)OC1CC=C(C)C` (stereo not drawn) [Compound 16], the IC50 in assay [1] (setting [4]) was determined as 1.2 ± 0.04 nM; in assay [2] (setting [4]), 2.6 ± 0.2 nM; in assay [3] (setting [4]), 2.9 ± 0.2 nM.

Turning to `CO[C@@H]1[C@H](OC(=O)Nc2ccc(C(=O)O)cc2)CC[C@]2(CO2)[C@H]1[C@@]1(C)O[C@@H]1CC=C(C)C` [Compound 9, 4-(((((3R,4S,5S,6R)-5-methoxy-4-((2R,3R)-2-methyl-3-(3-methylbut-2-en-1-yl)oxiran-2-yl)-1-oxaspiro[2.5]octan-6-yl)oxy)carbonyl)amino)benzoic acid], the 50% inhibitory concentration (IC50) in assay [1] (setting [4]) is 3.8 ± 0.6 nM; in assay [2] (setting [4]), 6.3 ± 0.7 nM; in assay [3], 6.7 ± 0.5 nM.

On to `COC1C(OC(=O)NC(=O)CN2CCC(O)CC2)CCC2(CO2)C1C1(C)OC1CC=C(C)C` (stereo not drawn) [Compound 4], for which the half-maximal inhibitory concentration (IC50) in assay [1] (setting [4]) was 4.6 ± 0.4 nM; in assay [2] (setting [4]), 6.8 ± 0.3 nM; in assay [3] (setting [4]), 36 ± 4.2 nM.

These data come from paper PMC7508583, “Discovery and Preclinical Development of Antigiardiasis Fumagillol Derivatives” (Antimicrobial Agents and Chemotherapy, 2020).
